{"source": "paper PMC7930822", "about": "“Phase I Trial to Evaluate the Tolerance, Pharmacokinetics and Efficacy of the Broad-Spectrum ErbB Family Inhibitor Larotinib Mesylate in Patients With Advanced Solid Tumors” (Frontiers in Pharmacology, 2021)", "key": {"Sprague–Dawley rats": {"test_system": "Sprague–Dawley rats", "conditions": "rat, in vivo", "protocol": "(§1) Animal toxicology studies of larotinib mesylate were conducted in both Sprague–Dawley rats and beagle dogs. […] The maximal tolerable doses (MTDs) were 20 and 25 mg/kg in Sprague–Dawley rats and beagle dogs, respectively.\n(§2) According to the guidance for clinical trials of antitumor agents published by the Center for Drug Evaluation and Research in China, for cytotoxic antitumor agents, the initial dose in a phase I study can be calculated as 1/10 of the MTD in rodents or 1/6 of the MTD in non-rodent animals ([CFDA, 2012]). For non-cytotoxic antitumor agents, because of their relatively lower toxicity, the initial dose can be set higher. According to the reported preclinical results for larotinib mesylate, the MTD in Sprague–Dawley rats translated to a human equivalent dose of 192 mg/d according to body surface area (calculated by 60 kg body weight), for which 1/10 is 19.2 mg/d ([FDA, 2005]). […] Taking the above results for the toxicology, preclinical pharmacology and pharmacodynamics, and drug specifications (10, 50 and 100 mg) of larotinib mesylate into account, we calculated a recommended starting dose of 50 mg larotinib mesylate for a phase I, first-in-human clinical study, lower than human equivalent 1/6 MTD translated from beagle dogs and near the human equivalent effective dose translated from tumor-bearing mice. […]"}, "beagle dogs [1]": {"test_system": "beagle dogs", "conditions": "dog, in vivo", "protocol": "as §1, §2"}, "tumor-bearing mice": {"test_system": "tumor-bearing mice", "experiment": "preclinical pharmacodynamic study in tumor-bearing mice", "assay_type": "in vivo", "conditions": "from effective dose of 18 mg/kg in tumor-bearing mice, by body surface area", "protocol": "as §1, §2"}, "[2]": {"test_system": "patients with advanced solid tumors", "experiment": "phase I safety and tolerance (NCI CTCAE version 4.03, DLTs)", "assay_type": "in vivo, human", "protocol": "This was a phase I, single-center, open-label, dose-escalation study conducted at First Hospital of Jilin University, China (registration no.: ChiCTR-OPC-15007153 registered at http://www.chictr.org.cn). Larotinib mesylate hard capsules were produced and supplied by Sunshine Lake Pharma Co., Ltd (Guangdong Province, China) in different unit doses of […] under GMP condition. Seven dose levels were designed in the study: 50, 100, 150, 220, 300, 350, and 400 mg with administration stages labeled cycle 0, cycle 1, and subsequent treatment cycles. Patients received an oral single dose of larotinib mesylate after fasting during a 6-days cycle 0 to evaluate the tolerance and pharmacokinetic characteristics. After cycle 0, larotinib mesylate was continuously administered once daily for 28 days in cycle 1, and the tolerance and pharmacokinetic characteristics of multiple doses were evaluated (Figure 2). The patients who […] disease control (complete response [CR], partial response [PR], or stable disease [SD]) at the end of cycle one were permitted to participate in the subsequent 28-days treatment cycles until progressive disease (PD) or intolerance was observed.\nWe enrolled three to six patients for each dose level, with the goal of having at least three patients complete the cycle 0 and cycle 1 treatments. We made an enrollment regulation for the extra patients (>3) according to the study stage of the last enrolled patient in the present dose level: If the patient had finished cycle 1 day 22, extra screened patients would be enrolled to the next dose level; if not, the current dose level would be selected. If 1/3 of patients experienced a DLT in cycle 0 or cycle 1, expansion to six patients was required for the current dose level.\nDLTs were observed according to the NCI CTCAE version 4.03 and defined as the emergence of any of the following drug-related AEs: hematological toxicity including Grade ≥3 neutropenia or thrombocytopenia and other Grade ≥4 hematological toxicity; nonhematological toxicities including Grade ≥2 atrioventricular block or renal injury; Grade ≥2 nausea, emesis, or diarrhea for ≥7 days despite optimal treatment; Grade ≥3 nausea, emesis, diarrhea, or rash despite supportive care; and alanine aminotransferase (ALT) or aspartate aminotransferase (AST) elevation by more than 5 times the upper limits of normal for ≥7 days and other Grade ≥3 nonhematological toxicities.\nSafety was assessed according to the NCI CTCAE version 4.03 including AEs, vital signs, and results from 12-lead […], cardiac ultrasound, physical examination, ophthalmic testing, and clinical laboratory tests. Dosage adjustments could be applied from cycle 2 according to the severity of the toxicities. Drug administration would be suspended when drug-related AEs were graded at 3 or 4, and the original dose or reduction dose would be given if the AEs returned to baseline or Grade 1 (nonhematological toxicities)/grade 2 (hematological toxicities) within 14 days."}, "EGFR (T790M)": {"test_system": "EGFR (T790M)", "parameters": "method as in data not published", "conditions": "ref data not published; cited from earlier work"}, "HER2": {"test_system": "HER2", "parameters": "method as in data not published", "conditions": "ref data not published; cited from earlier work"}, "[3]": {"biological_target": "interleukin-1 receptor-associated kinase 1 (IRAK1)", "parameters": "method as in data not published", "conditions": "ref data not published; cited from earlier work"}, "beagle dogs [4]": {"test_system": "beagle dogs", "parameters": "method as in data not published", "conditions": "ref data not published, cited from earlier work"}, "CYP3A4": {"test_system": "CYP3A4", "parameters": "method as in data not published", "conditions": "in vitro studies; ref data not published; cited from earlier work"}}, "note": "Structures can show the parent of a compound that is named as a salt.", "data": [{"compound": "COc1cc2ncnc(Nc3ccc(F)c(Cl)c3)c2cc1OCCCN1C[C@@H]2OCCO[C@@H]2C1", "note": "[larotinib mesylate]", "values": [{"measurement": "human equivalent dose of MTD", "setting": "Sprague–Dawley rats", "result": 192, "unit": "mg/day"}, {"measurement": "human equivalent dose of MTD", "setting": "beagle dogs [1]", "result": 810, "unit": "mg/day"}, {"measurement": "human equivalent effective dose", "setting": "tumor-bearing mice", "result": 86.4, "unit": "mg/day"}, {"measurement": "MTD in patients", "setting": "[2]; 50–400 mg/d oral", "result": "no MTD established"}, {"measurement": "Grade 3 drug-related decreased lymphocytes", "setting": "[2]; human, in vivo", "result": 12, "unit": "%"}, {"measurement": "Grade 3 drug-related diarrhea", "setting": "[2]; human, in vivo", "result": 4, "unit": "%"}, {"measurement": "Grade 3 drug-related nausea", "setting": "[2]; human, in vivo", "result": 4, "unit": "%"}, {"measurement": "drug-related acne-like rash, incidence", "setting": "[2]; human, in vivo", "result": 68.0, "unit": "%"}, {"measurement": "drug-related anemia, incidence", "setting": "[2]; human, in vivo", "result": 48.0, "unit": "%"}, {"measurement": "drug-related decreased lymphocyte percentage, incidence", "setting": "[2]; human, in vivo", "result": 40.0, "unit": "%"}, {"measurement": "drug-related diarrhea, incidence", "setting": "[2]; human, in vivo", "result": 48.0, "unit": "%"}, {"measurement": "drug-related hand-foot skin reaction, incidence", "setting": "[2]; human, in vivo", "result": 44.0, "unit": "%"}, {"measurement": "drug-related hypoalbuminemia, incidence", "setting": "[2]; human, in vivo", "result": 32.0, "unit": "%"}, {"measurement": "drug-related nausea, incidence", "setting": "[2]; human, in vivo", "result": 36.0, "unit": "%"}, {"measurement": "drug-related paronychia, incidence", "setting": "[2]; human, in vivo", "result": 48.0, "unit": "%"}, {"measurement": "drug-related stomatitis, incidence", "setting": "[2]; human, in vivo", "result": 44.0, "unit": "%"}, {"measurement": "drug-related weight loss, incidence", "setting": "[2]; human, in vivo", "result": 32.0, "unit": "%"}, {"measurement": "patients with Grade 3 drug-related AEs", "setting": "[2]; human, in vivo", "result": 20, "unit": "%"}, {"measurement": "patients with at least one drug-related AE", "setting": "[2]; human, in vivo", "result": 96, "unit": "%"}, {"measurement": "IC50", "setting": "EGFR (T790M)", "result": 45.2, "unit": "nM"}, {"measurement": "IC50", "setting": "HER2", "result": 253, "unit": "nM"}, {"measurement": "IC50", "setting": "[3]", "result": 167, "unit": "nM"}, {"measurement": "lowest observed adverse effect level (LOAEL)", "setting": "beagle dogs [4]; daily administration", "result": 5, "unit": "mg/kg"}, {"measurement": "maximal tolerable dose (MTD)", "setting": "beagle dogs [4]", "result": 25, "unit": "mg/kg"}, {"measurement": "fraction metabolized by CYP3A4", "setting": "CYP3A4", "result": "around 85%"}]}]}
